Measurements reported in PubChem BioAssay (NCI).
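Results reflect a 48-hour exposure of cells in 96-well plates to compound at five concentrations. GI50 = concentration required for 50% inhibition of growth. TGI denotes the concentration required for complete inhibition of growth.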

Experiments:
Test in all cases: inhibition of tumour cell growth, NCI panel, 48 h
OVCAR-5 ovarian = system: OVCAR-5 ovarian
DU-145 prostate = system: DU-145 prostate
TK-10 renal = system: TK-10 renal
SNB-19 CNS = system: SNB-19 CNS
HOP-62 NSCLC = system: HOP-62 NSCLC
COLO 205 colon = system: COLO 205 colon
BT-549 breast = system: BT-549 breast
HCT-116 colon = system: HCT-116 colon
A549 NSCLC = system: A549 NSCLC
EKVX NSCLC = system: EKVX NSCLC
M14 melanoma = system: M14 melanoma
HCT-15 colon = system: HCT-15 colon
K-562 leukemia = system: K-562 leukemia
KM12 colon = system: KM12 colon
CCRF-CEM leukemia = system: CCRF-CEM leukemia
SK-MEL-28 melanoma = system: SK-MEL-28 melanoma
RPMI-8226 leukemia = system: RPMI-8226 leukemia
IGROV1 ovarian = system: IGROV1 ovarian
SW-620 colon = system: SW-620 colon
MDA-MB-435 = system: MDA-MB-435
MCF7 breast = system: MCF7 breast
786-0 renal = system: 786-0 renal
MOLT-4 leukemia = system: MOLT-4 leukemia
HT29 colon = system: HT29 colon
CAKI-1 renal = system: CAKI-1 renal
MALME-3M melanoma = system: MALME-3M melanoma
PC-3 prostate = system: PC-3 prostate
HCC-2998 colon = system: HCC-2998 colon
SF-268 CNS = system: SF-268 CNS
NCI-H23 lung = system: NCI-H23 lung
NCI-H522 lung = system: NCI-H522 lung
UACC-62 melanoma = system: UACC-62 melanoma
HL-60(TB) leukemia = system: HL-60(TB) leukemia
SN12C renal = system: SN12C renal
NCI-H460 lung = system: NCI-H460 lung
UO-31 renal = system: UO-31 renal
T-47D breast = system: T-47D breast
OVCAR-3 ovarian = system: OVCAR-3 ovarian
RXF 393 renal = system: RXF 393 renal
SF-539 CNS = system: SF-539 CNS
NCI/ADR-RES ovarian = system: NCI/ADR-RES ovarian
OVCAR-4 ovarian = system: OVCAR-4 ovarian
ACHN renal = system: ACHN renal
SK-OV-3 ovarian = system: SK-OV-3 ovarian
SF-295 CNS = system: SF-295 CNS

**Q.** `COc1ccc(-c2ccc(/C=N/n3c(C)nn(CN4CCN(C)CC4)c3=S)o2)c([N+](=O)[O-])c1` was tested. Which GI50 (OVCAR-5 ovarian) did it give?
**A.** The GI50 was 62.6 µM.

**Q.** What about the TGI (OVCAR-5 ovarian) of the same molecule?
**A.** Its TGI is over 100 µM.

**Q.** What about the GI50 (DU-145 prostate) of the same molecule?
**A.** The GI50 was over 100 µM.

**Q.** And the TGI (DU-145 prostate)?
**A.** Its TGI is over 100 µM.

**Q.** And the GI50 (TK-10 renal)?
**A.** Its GI50 is 24.3 µM.

**Q.** And the TGI (TK-10 renal)?
**A.** Its TGI is 74.7 µM.

**Q.** And the GI50 (SNB-19 CNS)?
**A.** Its GI50 is 58.3 µM.

**Q.** What about the TGI (SNB-19 CNS) of the same molecule?
**A.** Its TGI is over 100 µM.

**Q.** And the GI50 (HOP-62 NSCLC)?
**A.** Its GI50 is 32.9 µM.

**Q.** What about the TGI (HOP-62 NSCLC) of the same molecule?
**A.** The TGI was over 100 µM.

**Q.** And the GI50 (COLO 205 colon)?
**A.** Its GI50 is 52.5 µM.

**Q.** What about the TGI (COLO 205 colon) of the same molecule?
**A.** The TGI was over 100 µM.

**Q.** What about the GI50 (BT-549 breast) of the same molecule?
**A.** The GI50 was over 100 µM.

**Q.** And the TGI (BT-549 breast)?
**A.** Its TGI is over 100 µM.

**Q.** What about the GI50 (HCT-116 colon) of the same molecule?
**A.** The GI50 was 21.7 µM.

**Q.** And the TGI (HCT-116 colon)?
**A.** Its TGI is 57.8 µM.

**Q.** What about the GI50 (A549 NSCLC) of the same molecule?
**A.** The GI50 was 60.8 µM.

**Q.** And the TGI (A549 NSCLC)?
**A.** Its TGI is over 100 µM.

**Q.** What about the GI50 (EKVX NSCLC) of the same molecule?
**A.** The GI50 was over 100 µM.

**Q.** What about the TGI (EKVX NSCLC) of the same molecule?
**A.** Its TGI is over 100 µM.

**Q.** And the GI50 (M14 melanoma)?
**A.** The GI50 was 42.4 µM.

**Q.** What about the TGI (M14 melanoma) of the same molecule?
**A.** The TGI was over 100 µM.

**Q.** What about the GI50 (HCT-15 colon) of the same molecule?
**A.** The GI50 was 28.7 µM.

**Q.** And the TGI (HCT-15 colon)?
**A.** Its TGI is over 100 µM.

**Q.** And the GI50 (K-562 leukemia)?
**A.** The GI50 was 16.2 µM.

**Q.** And the TGI (K-562 leukemia)?
**A.** The TGI was 42.4 µM.

**Q.** And the GI50 (KM12 colon)?
**A.** The GI50 was 17.7 µM.

**Q.** What about the TGI (KM12 colon) of the same molecule?
**A.** Its TGI is 42.9 µM.

**Q.** What about the GI50 (CCRF-CEM leukemia) of the same molecule?
**A.** Its GI50 is 22 µM.

**Q.** What about the TGI (CCRF-CEM leukemia) of the same molecule?
**A.** Its TGI is 61.4 µM.

**Q.** What about the GI50 (SK-MEL-28 melanoma) of the same molecule?
**A.** Its GI50 is 50 µM.

**Q.** And the TGI (SK-MEL-28 melanoma)?
**A.** Its TGI is over 100 µM.

**Q.** What about the GI50 (RPMI-8226 leukemia) of the same molecule?
**A.** The GI50 was 20.6 µM.

**Q.** And the TGI (RPMI-8226 leukemia)?
**A.** The TGI was 64.6 µM.

**Q.** And the GI50 (IGROV1 ovarian)?
**A.** Its GI50 is 63.4 µM.

**Q.** And the TGI (IGROV1 ovarian)?
**A.** The TGI was over 100 µM.

**Q.** And the GI50 (SW-620 colon)?
**A.** Its GI50 is over 100 µM.

**Q.** And the TGI (SW-620 colon)?
**A.** Its TGI is over 100 µM.

**Q.** And the GI50 (MDA-MB-435)?
**A.** Its GI50 is 14.2 µM.

**Q.** And the TGI (MDA-MB-435)?
**A.** The TGI was 31 µM.

**Q.** What about the GI50 (MCF7 breast) of the same molecule?
**A.** The GI50 was 30.4 µM.

**Q.** And the TGI (MCF7 breast)?
**A.** Its TGI is over 100 µM.

**Q.** What about the GI50 (786-0 renal) of the same molecule?
**A.** Its GI50 is 39.4 µM.

**Q.** What about the TGI (786-0 renal) of the same molecule?
**A.** The TGI was over 100 µM.

**Q.** What about the GI50 (MOLT-4 leukemia) of the same molecule?
**A.** Its GI50 is 20.5 µM.

**Q.** And the TGI (MOLT-4 leukemia)?
**A.** The TGI was 61.3 µM.

**Q.** And the GI50 (HT29 colon)?
**A.** The GI50 was 28 µM.

**Q.** And the TGI (HT29 colon)?
**A.** The TGI was over 100 µM.

**Q.** And the GI50 (CAKI-1 renal)?
**A.** The GI50 was 24.4 µM.

**Q.** And the TGI (CAKI-1 renal)?
**A.** The TGI was over 100 µM.

**Q.** What about the GI50 (MALME-3M melanoma) of the same molecule?
**A.** The GI50 was 44.6 µM.

**Q.** What about the TGI (MALME-3M melanoma) of the same molecule?
**A.** Its TGI is over 100 µM.

**Q.** What about the GI50 (PC-3 prostate) of the same molecule?
**A.** The GI50 was 24.9 µM.

**Q.** And the TGI (PC-3 prostate)?
**A.** Its TGI is 92 µM.

**Q.** And the GI50 (HCC-2998 colon)?
**A.** The GI50 was 34.7 µM.

**Q.** What about the TGI (HCC-2998 colon) of the same molecule?
**A.** Its TGI is over 100 µM.

**Q.** And the GI50 (SF-268 CNS)?
**A.** Its GI50 is 28.2 µM.

**Q.** And the TGI (SF-268 CNS)?
**A.** Its TGI is over 100 µM.

**Q.** What about the GI50 (NCI-H23 lung) of the same molecule?
**A.** The GI50 was 26.1 µM.

**Q.** What about the TGI (NCI-H23 lung) of the same molecule?
**A.** The TGI was 92.5 µM.

**Q.** What about the GI50 (NCI-H522 lung) of the same molecule?
**A.** The GI50 was 65 µM.

**Q.** What about the TGI (NCI-H522 lung) of the same molecule?
**A.** The TGI was over 100 µM.

**Q.** And the GI50 (UACC-62 melanoma)?
**A.** The GI50 was 55.4 µM.

**Q.** And the TGI (UACC-62 melanoma)?
**A.** The TGI was over 100 µM.

**Q.** And the GI50 (HL-60(TB) leukemia)?
**A.** Its GI50 is 14.9 µM.

**Q.** And the TGI (HL-60(TB) leukemia)?
**A.** The TGI was 33.3 µM.

**Q.** What about the GI50 (SN12C renal) of the same molecule?
**A.** Its GI50 is over 100 µM.

**Q.** What about the TGI (SN12C renal) of the same molecule?
**A.** Its TGI is over 100 µM.

**Q.** What about the GI50 (NCI-H460 lung) of the same molecule?
**A.** The GI50 was 29.3 µM.

**Q.** And the TGI (NCI-H460 lung)?
**A.** The TGI was over 100 µM.

**Q.** What about the GI50 (UO-31 renal) of the same molecule?
**A.** Its GI50 is over 100 µM.

**Q.** What about the TGI (UO-31 renal) of the same molecule?
**A.** The TGI was over 100 µM.

**Q.** And the GI50 (T-47D breast)?
**A.** The GI50 was 45.6 µM.

**Q.** And the TGI (T-47D breast)?
**A.** Its TGI is over 100 µM.

**Q.** And the GI50 (OVCAR-3 ovarian)?
**A.** The GI50 was 16.2 µM.

**Q.** What about the TGI (OVCAR-3 ovarian) of the same molecule?
**A.** Its TGI is 38.1 µM.

**Q.** And the GI50 (RXF 393 renal)?
**A.** The GI50 was 30.2 µM.

**Q.** What about the TGI (RXF 393 renal) of the same molecule?
**A.** Its TGI is over 100 µM.

**Q.** What about the GI50 (SF-539 CNS) of the same molecule?
**A.** Its GI50 is 54.4 µM.

**Q.** And the TGI (SF-539 CNS)?
**A.** Its TGI is over 100 µM.

**Q.** And the GI50 (NCI/ADR-RES ovarian)?
**A.** Its GI50 is 21.6 µM.

**Q.** What about the TGI (NCI/ADR-RES ovarian) of the same molecule?
**A.** Its TGI is 50.5 µM.

**Q.** And the GI50 (OVCAR-4 ovarian)?
**A.** The GI50 was 7.91 µM.

**Q.** What about the TGI (OVCAR-4 ovarian) of the same molecule?
**A.** The TGI was 35.7 µM.

**Q.** And the GI50 (ACHN renal)?
**A.** Its GI50 is 69.4 µM.

**Q.** What about the TGI (ACHN renal) of the same molecule?
**A.** The TGI was over 100 µM.

**Q.** And the GI50 (SK-OV-3 ovarian)?
**A.** The GI50 was 45 µM.

**Q.** And the TGI (SK-OV-3 ovarian)?
**A.** The TGI was over 100 µM.

**Q.** And the GI50 (SF-295 CNS)?
**A.** Its GI50 is 18.3 µM.

**Q.** And the TGI (SF-295 CNS)?
**A.** Its TGI is 48.2 µM.
